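Grown in 96-well plates, cells were treated for 48 hours with each compound at five concentrations. Insufficient inhibition: endpoint recorded as highest concentration tested. TGI: total growth inhibition.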
How the values were obtained:
Test in all cases: inhibition of tumour cell growth, NCI panel, 48 h
[1] = test system: BT-549 breast
[2] = test system: 786-0 renal
[3] = test system: IGROV1 ovarian
[4] = test system: OVCAR-5 ovarian
[5] = test system: SW-620 colon
[6] = test system: UACC-257 melanoma
[7] = test system: KM12 colon
[8] = test system: OVCAR-3 ovarian
[9] = test system: M14 melanoma
[10] = test system: SNB-19 CNS
[11] = test system: NCI-H522 lung
[12] = test system: HCC-2998 colon
[13] = test system: TK-10 renal
[14] = test system: UO-31 renal
[15] = test system: EKVX NSCLC
[16] = test system: MALME-3M melanoma
[17] = test system: RXF 393 renal
[18] = test system: CAKI-1 renal
[19] = test system: SF-268 CNS
[20] = test system: SK-OV-3 ovarian

SMILES | TGI [1] [µM] | TGI [2] [µM] | TGI [3] [µM] | TGI [4] [µM] | TGI [5] [µM] | TGI [6] [µM] | TGI [7] [µM] | TGI [8] [µM] | TGI [9] [µM] | TGI [10] [µM] | TGI [11] [µM] | TGI [12] [µM] | TGI [13] [µM] | TGI [14] [µM] | TGI [15] [µM] | TGI [16] [µM] | TGI [17] [µM] | TGI [18] [µM] | TGI [19] [µM] | TGI [20] [µM]
Cc1ccc(/C=C2\Cc3cccc(C)c3C2=O)c(C(=O)O)c1 | > 100 | > 100 | > 100 | > 100 | > 100 | > 100 | > 100 | > 100 | > 100 | > 100 | 60.8 | > 100 | > 100 | 31.4 | > 100 | > 100 | > 100 | 48.8 | > 100 | 
COC(=O)/C=C(/OC)[C@H](C)[C@H](/C=C/c1csc(-c2csc(C(C)C)n2)n1)OC | > 100 | > 100 | > 100 | > 100 | > 100 | > 100 | > 100 | > 56.3 | > 100 | > 100 | > 100 |  | > 100 | > 100 | > 100 | > 100 | > 25 | > 100 | > 100 | > 100
COC1O[C@H]2[C@H]3[C@@H]1[C@@H](OS(=O)(=O)c1ccc(C)cc1)C(=O)N3C[C@H]2O (some centres undefined) | > 100 | > 100 |  | > 100 | > 100 | > 100 | > 100 | > 100 | > 100 | > 100 |  | > 100 | > 100 | > 100 | > 100 | > 100 | 81.7 | > 100 | > 100 | > 100
COc1ccc2c(ccc3c(COC(=O)NC(C)C)c(COC(=O)NC(C)C)n(C)c32)c1 | 29.4 | 20.8 | 26 | 30.8 | 32.8 | 27.1 | 25.4 | 26.8 | 22.1 | > 100 | 12.8 |  | 47.8 | 28.9 | 44.8 | 12.2 | 22.2 | 8.56 | 29.7 | 32.5
CSc1nc(SC)c2ncn(C3CC(Oc4ccc(C)cc4)C(COc4ccc(C)cc4)O3)c2n1 (centres undefined) | > 100 | > 100 | > 100 | > 100 | > 100 | > 100 | > 100 | > 100 | > 100 | > 100 | > 100 | > 100 | > 100 | 7.61 | > 100 | > 100 |  | > 100 | > 100 | > 100
O=c1c2cc([N+](=O)[O-])ccc2nc2n1CCCCC2 | > 100 | > 100 | > 100 | > 100 | > 100 | > 100 | > 100 | > 100 | > 100 |  | > 100 |  | > 100 | > 100 | > 100 | > 100 | > 100 | > 100 | > 100 | > 100
C1=NCCNCCNCCN=Cc2ccccc2OCc2cccc(n2)COc2ccccc21 | > 100 | > 100 | > 100 | > 100 | > 100 | > 100 | > 100 | > 100 | > 100 | > 100 | > 100 |  |  | > 100 | > 100 | > 100 | > 100 | > 100 | > 100 | > 100
COc1cccc(Cc2cc(=O)c3ccc(C)nc3[nH]2)c1 | > 100 | > 100 | > 100 | > 100 | > 100 | > 100 | > 100 | > 100 | > 100 | > 100 | 65 |  | > 100 | > 100 | > 100 | > 100 | > 100 | > 100 | > 100 | > 100
CCOP(=O)(OCC)[C@H]1OC(C)(C)O[C@@H]1CO | > 100 | > 100 | > 100 | > 100 | > 100 | > 100 | > 100 | > 100 | > 100 | > 100 | > 100 | > 100 | > 100 |  | > 100 | > 100 |  | > 100 | > 100 | > 100
COC(=O)c1c2c(cc3c1CC1(Cc4cc5c(cc4C1=O)CCC5)C3)CCC2 (centres undefined) | > 100 | > 100 | > 100 | > 100 | > 100 | > 100 | > 100 | > 100 | > 100 | > 100 | > 100 | > 100 | > 100 | > 100 | > 100 | > 100 |  | > 100 | > 100 | 93.8
Cc1nc2ccccc2c(=O)n1NC(=S)Nc1ccc(Cl)cc1[N+](=O)[O-] | > 100 | > 100 | > 100 | > 100 | > 100 | > 100 | > 100 | > 100 | > 100 | > 100 | > 100 |  | > 100 | > 100 | > 100 | > 100 | > 100 | > 100 | > 100 | > 100
CNC(=O)CN(C)C(=O)CCC(=O)N(C)C | > 100 | > 100 | > 100 | > 100 | > 100 | > 100 | > 100 | > 100 | > 100 | > 100 | > 100 | > 100 | > 100 | > 100 | > 100 | > 100 |  | > 100 | > 100 | > 100

From PubChem BioAssay (NCI)
